From US20240174622A1, “COMPOUND AND RADIOACTIVE LABELING COMPOUND” (NIHON MEDI-PHYSICS CO., LTD., priority 2021, published 2024)

Assays:
LNCaP tumor [1] = format: in vivo, mouse; conditions: for time after administration at which a significant difference in tumor volume from the saline-administered group was observed: 3.7 MBq, tail vein
Protocol: LNCaP tumor-implanted mice were administered saline solutions (100 μL) of [^90Y]Y-PSMA-DA1 (3.7 MBq) or [^90Y]Y-PSMA-DB (3.7 MBq) obtained by the method described above from the tail vein (n=7). As the control group, LNCaP tumor-implanted mice were administered 100 μL of saline from the tail vein (n=7). After administration of the ^90Y-labeling compound, the tumor volume and body weight were measured 3 times per week. The tumor volume was calculated based on the calculation formula “(tumor volume)=[(long side) x (short side) 2/2]”.

LNCaP tumor [2] = experiment: Evaluation of suppressing tumor growth by 225Ac-labeling compound; format: in vivo, mouse; conditions: 20 kBq, tail vein
Protocol: [^225Ac]Ac-PSMA-DA1 (20 kBq) or [^225Ac]Ac-PSMA-DB (20 kBq) obtained by the above method was dissolved in 5% ethanol-containing acetate buffer (158 mM, pH 6.5, 100 μL), and the solution was administered to LNCaP tumor-transplanted mice from the tail vein (n=6 or 5). As the control group, 100 μL of 5% ethanol-containing acetate buffer (158 mM, pH 6.5) was administered to LNCaP tumor-transplanted mice from the tail vein (n=4).
After administration of the ^225Ac-labeling compound, the tumor volume and body weight were measured 2 times per week. The tumor volumes on the day when administration of ^225Ac-labeling compound was started were 75.3±26.0, 80.6±20.8, and 91.1±15.9 mm^3 for the groups administered [^225Ac]Ac-PSMA-DA1, [^225Ac]Ac-PSMA-DB, and 5% ethanol-containing acetate buffer, respectively.

[3] = compared with one hour after administration; EJNMMI Res 2012, J Nucl Med 2017; cited from earlier work

O=C([O-])CN1CCN(C(CCC(=O)NCCCC[C@H](NC(=O)N[C@@H](CCC(=O)O)C(=O)O)C(=O)O)C(=O)[O-])CCN(CC(=O)[O-])CCN(C(CCC(=O)Nc2ccccc2)C(=O)[O-])CC1.[90Y+3] (stereo partly drawn) [[^90Y]Y-PSMA-DB, reference compound]
time after administration at which a significant difference in tumor volume from the saline-administered group was observed (LNCaP tumor [1]): 33 days

O=C([O-])CN1CCN(C(CCC(=O)NCCCC[C@H](NC(=O)N[C@@H](CCC(=O)O)C(=O)O)C(=O)O)C(=O)[O-])CCN(CC(=O)[O-])CCN(C(CCC(=O)N[C@@H](CCCCNC(=O)CCCc2ccc(I)cc2)C(=O)O)C(=O)[O-])CC1.[90Y+3] (stereo partly drawn) [[^90Y]Y-PSMA-DA1]
time after administration at which a significant difference in tumor volume from the saline-administered group was observed (LNCaP tumor [1]): 9 days
body weight of the mice (LNCaP tumor [1]; mouse, in vivo): slightly reduced

O=C([O-])CN1CCN(C(CCC(=O)NCCCC[C@H](NC(=O)N[C@@H](CCC(=O)O)C(=O)O)C(=O)O)C(=O)[O-])CCN(CC(=O)[O-])CCN(C(CCC(=O)N[C@@H](CCCCNC(=O)CCCc2ccc(I)cc2)C(=O)O)C(=O)[O-])CC1.[225Ac+3] (stereo partly drawn) [[^225Ac]Ac-PSMA-DA1]
body weight reduction (LNCaP tumor [2]): transient
growth suppression continuously observed until (LNCaP tumor [2]): 6 weeks
tumor growth compared with the control group (LNCaP tumor [2]): significantly suppressed

O=C([O-])CN1CCN(C(CCC(=O)NCCCC[C@H](NC(=O)N[C@@H](CCC(=O)O)C(=O)O)C(=O)O)C(=O)[O-])CCN(CC(=O)[O-])CCN(C(CCC(=O)Nc2ccccc2)C(=O)[O-])CC1.[225Ac+3] (stereo partly drawn) [[^225Ac]Ac-PSMA-DB, reference compound]
body weight reduction (LNCaP tumor [2]): no sign of recovery
tumor growth compared with the control group (LNCaP tumor [2]): significantly suppressed

O=C([O-])CN(CCN(CC(=O)[O-])Cc1cc(CCC(=O)NCCCCCC(=O)NCCCC[C@H](NC(=O)N[C@@H](CCC(=O)O)C(=O)O)C(=O)O)ccc1[O-])Cc1cc(CCC(=O)O)ccc1[O-].[68Ga+3].[OH3+] [[^68Ga]Ga-PSMA-11]
kidney accumulation of known radiolabeled compound [3]: 139 % ID/g
